In patent US20080274959A1, “Actinomadura Chromoprotein, Apoprotein and Gene Cluster” (Wyeth, priority 2004, published 2008):

Assays:
HCT116 cells = assay: Uptake of FITC-tagged protein, fluorescent microscopy / flow cytometry; format: cell-based, human
Description: To determine the mechanism by which the chromoprotein enters cells and exerts its biological activity, the chromoprotein was labeled with a fluorescent tag (FITC) using EZ-Label fluorescent labeling kit (Pierce Biotechnology), according to the manufacturer's recommendation. […] Uptake of labeled material by HCT116 colon carcinoma cells was studied by fluorescent microscopy.
To determine whether an intact complex of chromophore and apoprotein is required for cellular and nuclear entry, the chromoprotein and apoprotein were labeled with FITC. Uptake of labeled material was studied by fluorescent microscopy.
To determine whether the entry of chromoprotein into cells is mediated by a saturable (e.g. cell surface receptor-dependent) process, HCT116 cells were incubated with FITC-labeled chromoprotein (FIG. 28, right panel) or apoprotein (FIG. 28, left panel) in the absence or presence of 10-fold excess of unlabeled reagent (unlabelled chromoprotein or apoprotein, respectively). Cells were analysed by fluorescent microscopy (left) or flow cytometry (right). […] Numbers in the histograms are mean channel numbers (FITC fluorescence).
Other means by which a protein complex can enter cells is pinocytosis, where caveolae in the surface of the cell pinch off to form pinosomes that are free within the cytoplasm of the cell. Since pinocytosis is an energy-dependent process that requires a functional tubulin cytoskeletal network, we examined the effect of sodium azide, an energy uncoupling agent and nocodazole, an agent which disrupts the tubulin cytoskeleton on cellular uptake. HCT116 cells were treated with FITC-labeled apoprotein in the absence or presence of sodium azide or nocodazole.

histone H1 in HeLa cells = assay: Digestion of histone H1 in HeLa cells, immunoblot; format: cell-based; details: overnight at 37° C., anti-histone H1 immunoblot
Experimental: To study whether the digestion of histones by the chromoprotein occurs in intact cells, HeLa cells were incubated with compounds overnight at 37° C. Cell lysates were analysed by SDS-PAGE and protein immunoblotting using anti-histone H1 antibodies (Santa Cruz Biotechnologies). […] This activity can contribute to antitumor effects by digesting histones in chromatin, making the DNA more accessible for cleavage. This appears to be a unique activity of the chromoprotein enediynes.

Histone H1 = assay: Digestion of histone H1, SDS-PAGE; format: biochemical; details: 50 mM Tris-Cl, pH 7.5 overnight at 37° C.
Experimental: Histone H1 was incubated with various concentrations of the chromoprotein in 50 mM Tris-Cl, pH 7.5 overnight at 37° C. (FIG. 20) Digestions of histone were assessed by SDS-polyacrylamide gel electrophoresis (SDS-PAGE), followed by staining of the gel with GelCode Blue (Pierce Biotechnology, Inc, Rockford, Ill.).

KB = assay: IC50 against P-GP expressing cells: KB; format: cell-based; details: P-GP level −, mean of two independent experiments
Description: (§1) Human PGP (MDR1) is an ATP-dependent efflux pump which is capable of transporting many drugs across cell membranes. High level expression of this protein has been linked to multiple drug resistance of tumors. […] The protein component of the chromoprotein probably protects the chromophore from drug efflux mediated by MDR1, and may be responsible for the beneficial antitumor effects in colon cell lines which often express MDR1.

KB-8-5 = assay: IC50 against P-GP expressing cells: KB-8-5; format: cell-based; details: KB-8-5, P-GP level +; mean of two independent experiments
Description: as §1

KB-V-1 = assay: IC50 against P-GP expressing cells: KB-V-1; format: cell-based; details: KB-V-1, P-GP level +++; mean of two independent experiments
Description: as §1

Human PGP (MDR1) = target: T1, Human PGP (MDR1) (Homo sapiens, UniProt P08183); assay: Transport by P-GP (MDR-1); format: cell-based; details: judged from IC50 in KB, KB-8-5, KB-V-1 cells
T1 construct: endogenous in cells; parental KB is P-GP negative
T1 sequence (P08183 whole entry): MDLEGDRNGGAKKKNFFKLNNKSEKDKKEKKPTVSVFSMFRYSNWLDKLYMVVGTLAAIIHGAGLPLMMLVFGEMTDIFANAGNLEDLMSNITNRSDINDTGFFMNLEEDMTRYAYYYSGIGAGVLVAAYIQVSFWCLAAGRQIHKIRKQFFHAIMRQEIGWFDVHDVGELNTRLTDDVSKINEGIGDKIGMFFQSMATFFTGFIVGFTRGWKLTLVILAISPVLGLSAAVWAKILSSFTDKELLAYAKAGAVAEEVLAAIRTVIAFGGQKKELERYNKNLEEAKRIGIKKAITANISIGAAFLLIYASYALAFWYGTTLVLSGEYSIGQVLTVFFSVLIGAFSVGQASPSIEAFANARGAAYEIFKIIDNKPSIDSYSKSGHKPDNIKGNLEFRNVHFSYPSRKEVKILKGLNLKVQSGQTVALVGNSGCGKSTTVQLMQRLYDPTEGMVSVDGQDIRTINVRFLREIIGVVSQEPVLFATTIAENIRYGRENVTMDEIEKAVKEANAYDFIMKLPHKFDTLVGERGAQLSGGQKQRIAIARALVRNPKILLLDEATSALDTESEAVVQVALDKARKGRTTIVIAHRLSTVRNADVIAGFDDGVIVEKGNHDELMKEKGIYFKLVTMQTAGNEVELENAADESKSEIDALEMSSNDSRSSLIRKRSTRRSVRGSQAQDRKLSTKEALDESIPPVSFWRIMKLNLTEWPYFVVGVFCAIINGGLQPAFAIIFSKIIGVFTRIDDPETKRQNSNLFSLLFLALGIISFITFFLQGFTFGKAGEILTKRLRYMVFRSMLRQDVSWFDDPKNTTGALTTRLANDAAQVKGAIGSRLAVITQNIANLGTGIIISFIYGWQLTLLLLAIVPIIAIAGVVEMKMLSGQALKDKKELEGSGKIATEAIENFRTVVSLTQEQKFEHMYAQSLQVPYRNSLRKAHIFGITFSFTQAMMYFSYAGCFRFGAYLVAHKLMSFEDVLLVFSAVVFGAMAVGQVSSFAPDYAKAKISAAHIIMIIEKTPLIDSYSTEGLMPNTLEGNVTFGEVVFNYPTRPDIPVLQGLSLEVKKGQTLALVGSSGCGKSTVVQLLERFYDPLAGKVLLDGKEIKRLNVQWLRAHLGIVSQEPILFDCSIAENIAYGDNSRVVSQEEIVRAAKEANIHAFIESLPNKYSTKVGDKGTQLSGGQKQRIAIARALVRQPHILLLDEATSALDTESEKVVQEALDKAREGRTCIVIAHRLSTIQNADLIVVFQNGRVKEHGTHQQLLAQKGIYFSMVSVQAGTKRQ
Description: as §1

[1] = system: human tumor cell line panel; assay: In vitro anti-tumor activity, human tumor cell line panel; format: cell-based; details: apoprotein alone

Which “effect on uptake of FITC-labeled apoprotein” value (HCT116 cells; HCT116 cells) does the source give for COC(=O)Nc1nc2ccc(C(=O)c3cccs3)cc2[nH]1 [nocodazole, reference compound] here?
The value was “inhibited uptake of label”.

With bleomycin as the molecule, how does the “histone H1 in cells after incubation” value (histone H1 in HeLa cells) read?
The value was “No effect”.

How did the “digestion of histone H1” value (Histone H1) turn out when calicheamicin [reference compound] was run?
Its value is “did not cleave histone H1”.

And the “histone H1 in cells after incubation” value (histone H1 in HeLa cells)?
Its value is “No effect”.

What about the IC50 (KB) of the same molecule?
The IC50 was 0.003 µg/mL.

And the IC50 (KB-8-5)?
Its IC50 is 0.021 µg/mL.

And the IC50 (KB-V-1)?
Its IC50 is >1 µg/mL.

And the “MDR1 substrate” value (Human PGP (MDR1))?
Its value is “good substrate for MDR1”.

B1: apoprotein: protein component of the 21G792 chromoprotein without chromophore, SEQ ID NO:150, 12.92409 kDa by MALDI-MS (protein)
chain: DTVTVNYDCVGYPSDIAVTIDAPATAGVGDTATFEVSSVVTTGAPQDLPAGEVVTDMAIVVGGAQSGTITASGLTNEATPAGQPVNMVGGEAQITFTSAGSVTFTPSTTTQVDNGAQCTVVGEAPVGATTVVS
modifications: Actinomadura sp. 21G792
How did the “in vitro anti-tumor activity” value [1] turn out when B1 was run?
Its value is “inactive”.

What about the “digestion of histone H1” value (Histone H1) of the same molecule?
Its value is “no activity”.

What about the “uptake, apoprotein compared with chromoprotein” value (HCT116 cells; FITC-labeled) of the same molecule?
Its value is “similar”.

What about the “competition of uptake by 10-fold excess of unlabeled reagent” value (HCT116 cells; FITC-labeled, microscopy or flow cytometry) of the same molecule?
The value was “No competition of label”.
